Test results taken from ChEMBL document CHEMBL1128866, “Isophthalic acid derivatives: amino acid surrogates for the inhibition of HIV-1 protease” (Bioorg Med Chem Lett, 1995).

How the values were obtained:
[1] = molecular target: Human immunodeficiency virus type 1 protease (Human immunodeficiency virus 1, UniProt Q72874); assay: Inhibitory activity against human immunodeficiency virus protease (HIVP) using protease inhibition assay
[2] = Peak oral plasma concentration was determined in rats by oral administration; type: ADME, organism-based; parameters: route oral; settings: rat
CCRF-CEM = assay: Antiviral activity in HIV-infected CEM cells using whole cell assay; type: functional, cell-based; settings: Homo sapiens

Row | SMILES | IC50 [1] | Cmax [2] | IC50 (CCRF-CEM)
1 | Cc1ccc(C(=O)N2CCc3ccccc3C2)cc1C(=O)N[C@@H](Cc1ccccc1)[C@H](O)Cc1ccccc1C(=O)NC(C)(C)C | 6.1 nM | – | –
2 | Cc1ccc(C(=O)N[C@@H](Cc2ccccc2)[C@H](O)Cc2ccccc2C(=O)NC(C)(C)C)cc1C(=O)N1CCc2ccccc2C1 | 670 nM | – | –
3 | CC(C)(C)NC(=O)c1ccccc1C[C@@H](O)[C@H](Cc1ccccc1)NC(=O)[C@H](CC(N)=O)NC(=O)c1ccc2ccccc2n1 | – | < 100 nM | 27 nM
4 | Cc1ccc(C(=O)N(C)Cc2ccccn2)cc1C(=O)N[C@@H](Cc1ccccc1)[C@H](O)CN1C[C@H]2CCCC[C@H]2C[C@H]1C(=O)NC(C)(C)C | 8.6 nM | 4400 nM | 77 nM
5 | Cc1ccc(C(=O)N2CCc3ccccc3C2)cc1C(=O)N[C@@H](Cc1ccccc1)[C@H](O)CN1C[C@H]2CCCC[C@H]2C[C@H]1C(=O)NC(C)(C)C | 13.8 nM | < 100 nM | 1400 nM
6 | CC(C)(C)NC(=O)c1ccccc1C[C@@H](O)[C@H](Cc1ccccc1)NC(=O)c1cccc(C(=O)N2CCc3ccccc3C2)c1 | 50 nM | – | –
7 | Cc1cc(C(=O)N[C@@H](Cc2ccccc2)[C@H](O)Cc2ccccc2C(=O)NC(C)(C)C)cc(C(=O)N2CCc3ccccc3C2)c1 | 500 nM | – | –
8 | CC(C)(C)NC(=O)[C@@H]1C[C@@H]2CCCC[C@@H]2CN1C[C@@H](O)[C@H](Cc1ccccc1)NC(=O)[C@H](CC(N)=O)NC(=O)c1ccc2ccccc2n1 | – | – | 2 nM
